Test results published in paper PMC7930289 (Heliyon, 2021).
pKi: −log10 of the molar value.

What was measured:
[1] = target: Na+/K+-ATPase; conditions: read-out: Ki (Na+/K+-ATPase activity); cited from earlier work
[2] = target: hPMCA4 overexpressed in HEK293T cells (Homo sapiens, UniProt P23634); test: Dynamics of cytoplasmic Ca2+ in HEK293T cells overexpressing hPMCA4; assay type: cell-based; conditions: 50 μM, 30 min; for AUC of [Ca2+]CYT after TG addition: 2 μM TG
Chain of hPMCA4 overexpressed in HEK293T cells (P23634 1-1205 isoform P23634-6): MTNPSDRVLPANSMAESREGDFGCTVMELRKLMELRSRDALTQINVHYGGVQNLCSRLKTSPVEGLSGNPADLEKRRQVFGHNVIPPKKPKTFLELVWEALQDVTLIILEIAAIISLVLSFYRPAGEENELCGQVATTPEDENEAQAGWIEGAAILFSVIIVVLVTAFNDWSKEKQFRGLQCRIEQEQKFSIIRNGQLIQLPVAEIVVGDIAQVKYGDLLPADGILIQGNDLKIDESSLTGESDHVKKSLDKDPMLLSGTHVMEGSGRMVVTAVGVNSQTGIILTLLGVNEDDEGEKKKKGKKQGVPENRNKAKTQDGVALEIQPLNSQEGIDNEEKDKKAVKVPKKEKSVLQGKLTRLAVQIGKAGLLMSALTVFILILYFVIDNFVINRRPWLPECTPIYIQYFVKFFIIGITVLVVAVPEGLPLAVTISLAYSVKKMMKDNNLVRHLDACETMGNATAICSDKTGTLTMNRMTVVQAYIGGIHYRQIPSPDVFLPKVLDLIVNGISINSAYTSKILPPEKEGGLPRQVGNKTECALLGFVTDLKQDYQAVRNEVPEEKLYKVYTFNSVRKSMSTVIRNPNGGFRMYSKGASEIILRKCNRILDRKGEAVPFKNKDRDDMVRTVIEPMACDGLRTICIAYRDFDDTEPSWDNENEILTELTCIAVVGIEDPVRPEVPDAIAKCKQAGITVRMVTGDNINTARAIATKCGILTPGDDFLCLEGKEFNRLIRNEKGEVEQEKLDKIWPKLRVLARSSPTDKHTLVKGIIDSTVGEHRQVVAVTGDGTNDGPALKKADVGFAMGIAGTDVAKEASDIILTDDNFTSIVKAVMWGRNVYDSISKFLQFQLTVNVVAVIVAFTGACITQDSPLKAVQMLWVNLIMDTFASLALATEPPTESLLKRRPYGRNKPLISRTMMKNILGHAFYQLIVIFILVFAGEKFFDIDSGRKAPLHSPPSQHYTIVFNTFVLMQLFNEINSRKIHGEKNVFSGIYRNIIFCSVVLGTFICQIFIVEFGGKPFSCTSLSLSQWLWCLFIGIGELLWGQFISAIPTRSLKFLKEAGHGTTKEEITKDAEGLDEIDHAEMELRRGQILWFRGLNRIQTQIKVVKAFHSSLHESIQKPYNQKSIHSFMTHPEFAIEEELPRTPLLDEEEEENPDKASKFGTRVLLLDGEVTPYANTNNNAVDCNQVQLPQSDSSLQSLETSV

hPMCA4 activity in HEK293T cells (Eq. 6) [2]: significantly decreased | AUC of [Ca2+]CYT after TG addition ([2]; HEK293T-hPMCA4 cells): induced an increase in the AUC value | AUC of [Ca2+]CYT after TG addition ([2]; HEK293T-mock cells): no significant effect
Compound: O=C(O[C@@H]1Cc2c(O)cc(O)cc2O[C@@H]1c1cc(O)c(O)c(O)c1)c1cc(O)c(O)c(O)c1 [EGCG, (−)-cis-3,3′,4′,5,5′,7-Hexahydroxy-flavane-3-gallate]
pKi [1]: 6.00
